Our source for the IC50 values is US8304419B2, “Chemical compounds” (priority 2007, dated 2012).

Where a name gives a salt, the structure may show the parent alone.

For one experiment, the system named is HIV wild type (WTRVA). Put plainly: HeLa cell assay, wild type virus (WTRVA). Set-up: scale not given here. As to conditions: Human immunodeficiency virus 1, HeLa, HeLa cell assay; read-out: IC50 against WTRVA. Format: cell-based, HIV-1.
On to `N#Cc1cc(Cl)cc(Oc2c(Br)ccc(CNC(=O)c3[nH]c(CO)nc3Cl)c2F)c1` [Example 241, N-({4-bromo-3-[(3-chloro-5-cyanophenyl)oxy]-2-fluorophenyl}methyl)-4-chloro-2-(hydroxymethyl)-1H-imidazole-5-carboxamide], for which the IC50 was < 10 nM.
Same read-out and setting: the figure for `N#Cc1cc(Cl)cc(Oc2c(Cl)ccc(CNC(=O)c3[nH]cnc3Cl)c2F)c1Cl` [Example 144, 4-chloro-N-({4-chloro-3-[(2,5-dichloro-3-cyanophenyl)oxy]-2-fluorophenyl}methyl)-1H-imidazole-5-carboxamide] is < 10 nM; for `C=Cc1cc(C#N)cc(Oc2c(Cl)ccc(CNC(=O)c3[nH]cnc3Cl)c2F)c1` [Example 143, 4-chloro-N-({4-chloro-3-[(3-cyano-5-ethenylphenyl)oxy]-2-fluorophenyl}methyl)-1H-imidazole-5-carboxamide] it is < 10 nM; for `N#Cc1cc(Cl)cc(Oc2c(Cl)ccc(Cn3cnc4nc[nH]c4c3=O)c2F)c1` [Example 368, 3-chloro-5-({6-chloro-2-fluoro-3-[(6-oxo-6,7-dihydro-1H-purin-1-yl)methyl]phenyl}oxy)benzonitrile trifluoroacetate] it is < 10 nM.

Staying with this experiment, now noted: Human immunodeficiency virus 1, HeLa, HeLa-CD4-LTR-β-gal cells, wild type virus; read-out: WTRVA activity level.
On to `COc1cc2cc(C(=O)NCc3ccc(Cl)c(Oc4cc(Cl)cc(C#N)c4)c3F)[nH]c2cn1` [Example 46, N-({4-chloro-3-[(3-chloro-5-cyanophenyl)oxy]-2-fluorophenyl}methyl)-5-(methyloxy)-1H-pyrrolo[2,3-c]pyridine-2-carboxamide trifluoroacetate], for which the IC50 was < 10 nM.
Turning to `N#Cc1cc(Cl)cc(Oc2c(Cl)ccc(CNC(=O)c3cc4cc(Br)ccc4[nH]3)c2F)c1` [Example 29, 5-bromo-N-({4-chloro-3-[(3-chloro-5-cyanophenyl)oxy]-2-fluorophenyl}methyl)-1H-indole-2-carboxamide], the IC50 lay in the range of 10 to 1000 nM.
Take `CCc1c(C(=O)NCc2ccc(Cl)c(Oc3cc(Cl)cc(C#N)c3)c2F)[nH]c2ccc(OC)cc12` [Example 81, N-({4-chloro-3-[(3-chloro-5-cyanophenyl)oxy]-2-fluorophenyl}methyl)-3-ethyl-5-(methyloxy)-1H-indole-2-carboxamide trifluoroacetate]: the IC50 lay within 10 to 1000 nM.
Take `N#Cc1cc(Cl)cc(Oc2c(Cl)ccc(CNC(=O)c3cnccn3)c2F)c1` [Example 87, N-({4-chloro-3-[(3-chloro-5-cyanophenyl)oxy]-2-fluorophenyl}methyl)-2-pyrazinecarboxamide trifluoroacetate]: the IC50 was < 10 nM.
`N#Cc1cc(Cl)cc(Oc2c(Cl)ccc(CNC(=O)c3ccccn3)c2F)c1` [Example 85, N-({4-chloro-3-[(3-chloro-5-cyanophenyl)oxy]-2-fluorophenyl}methyl)-2]: the IC50 is < 10 nM.
On the same count and under the same terms, the figure for `N#Cc1cc(Cl)cc(Oc2c(Cl)ccc(CNC(=O)c3ccc[nH]3)c2F)c1` [Example 57, N-({4-chloro-3-[(3-chloro-5-cyanophenyl)oxy]-2-fluorophenyl}methyl)-1H-pyrrole-2-carboxamide] is < 10 nM.
The same measure, in the same setting: for `CN(C)CCOc1ccc2[nH]c(C(=O)NCc3ccc(Cl)c(Oc4cc(Cl)cc(C#N)c4)c3F)cc2c1` [Example 105, N-({4-chloro-3-[(3-chloro-5-cyanophenyl)oxy]-2-fluorophenyl}methyl)-5-{[2-(dimethylamino)ethyl]oxy}-1H-indole-2-carboxamide] the value was < 10 nM.
On the same count and under the same terms, the figure for `N#Cc1cc(Cl)cc(Oc2c(Cl)ccc(CNC(=O)c3cc4cc([N+](=O)[O-])ccc4o3)c2F)c1` [Example 50, N-({4-chloro-3-[(3-chloro-5-cyanophenyl)oxy]-2-fluorophenyl}methyl)-5-nitro-1-benzofuran-2-carboxamide trifluoroacetate] is 10 to 1000 nM; for `N#Cc1cc(Cl)cc(Oc2c(Cl)ccc(CNC(=O)c3cc4cc([N+](=O)[O-])ccc4[nH]3)c2F)c1` [Example 19, N-({4-chloro-3-[(3-chloro-5-cyanophenyl)oxy]-2-fluorophenyl}methyl)-5-nitro-1H-indole-2-carboxamide] it is < 10 nM.
